Results: the supplement of paper PMC9663587

Legend:
Assay in all cases: GR value, 72 h; higher = faster growth (1 = untreated, <0 = killing);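 further: breast cancer and non-malignant breast epithelial lines, nine half-log doses, viable cells counted by Hoechst and LIVE/DEAD dye imaging versus time-zero plates and DMSO controls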
[1] = compound: CCN1CCN(Cc2ccc(Nc3ncc(F)c(-c4cc(F)c5nc(C)n(C(C)C)c5c4)n3)nc2)CC1
THZ1 = compound: CN(C)C/C=C/C(=O)Nc1ccc(C(=O)Nc2cccc(Nc3ncc(Cl)c(-c4c[nH]c5ccccc45)n3)c2)cc1 [THZ1]
[2] = compound: CC(=O)c1c(C)c2cnc(Nc3ccc(N4CCNCC4)cn3)nc2n(C2CCCC2)c1=O
BSJ-03-123 = compound: CC(=O)c1c(C)c2cnc(Nc3ccc(N4CCN(CCOCCOCCOCCNC(=O)COc5cccc6c5C(=O)N(C5CCC(=O)NC5=O)C6=O)CC4)cn3)nc2n(C2CCCC2)c1=O [BSJ-03-123]
Neratinib/HKI272 = compound: CCOc1cc2ncc(C#N)c(Nc3ccc(OCc4ccccn4)c(Cl)c3)c2cc1NC(=O)/C=C/CN(C)C [Neratinib/HKI272]
[3] = compound: CCc1cnn2c(NCc3ccc[n+]([O-])c3)cc(N3CCCC[C@H]3CCO)nc12

Cell Line: PDX1258
- GR value ([1]; 0.001 µM): 1.06 GR
- GR value ([1]; 0.003162 µM): 1.1 GR
- GR value ([1]; 0.01 µM): 1.03 GR
- GR value ([1]; 0.03162 µM): 0.961 GR
- GR value ([1]; 0.1 µM): 0.911 GR
- GR value ([1]; 0.3162 µM): 0.719 GR
- GR value ([1]; 1 µM): 0.375 GR
- GR value ([1]; 3.162 µM): -0.0697 GR
- GR value ([1]; 10 µM): -0.334 GR
- GR value (THZ1; 0.0001 µM): 1.11 GR
- GR value (THZ1; 0.0003162 µM): 1.16 GR
- GR value (THZ1; 0.001 µM): 1.17 GR
- GR value (THZ1; 0.003162 µM): 0.923 GR
- GR value (THZ1; 0.01 µM): 0.918 GR
- GR value (THZ1; 0.03162 µM): -0.295 GR
- GR value (THZ1; 0.1 µM): -0.51 GR
- GR value (THZ1; 0.3162 µM): -0.509 GR
- GR value (THZ1; 1 µM): -0.665 GR
- GR value ([2]; 0.0003162 µM): 1.07 GR
- GR value ([2]; 0.001 µM): 1.08 GR
- GR value ([2]; 0.003162 µM): 1.11 GR
- GR value ([2]; 0.01 µM): 1.12 GR
- GR value ([2]; 0.03162 µM): 1.1 GR
- GR value ([2]; 0.1 µM): 1.05 GR
- GR value ([2]; 0.3162 µM): 1.09 GR
- GR value ([2]; 1 µM): 1.09 GR
- GR value ([2]; 3.162 µM): 0.993 GR
- GR value (BSJ-03-123; 0.001 µM): 1.13 GR
- GR value (BSJ-03-123; 0.003162 µM): 0.919 GR
- GR value (BSJ-03-123; 0.01 µM): 1.2 GR
- GR value (BSJ-03-123; 0.03162 µM): 1.29 GR
- GR value (BSJ-03-123; 0.1 µM): 1.08 GR
- GR value (BSJ-03-123; 0.3162 µM): 1.02 GR
- GR value (BSJ-03-123; 1 µM): 0.916 GR
- GR value (BSJ-03-123; 3.162 µM): 0.819 GR
- GR value (BSJ-03-123; 10 µM): -0.415 GR
- GR value (Neratinib/HKI272; 0.0003162 µM): 1.07 GR
- GR value (Neratinib/HKI272; 0.001 µM): 1.02 GR
- GR value (Neratinib/HKI272; 0.003162 µM): 1.1 GR
- GR value (Neratinib/HKI272; 0.01 µM): 1 GR
- GR value (Neratinib/HKI272; 0.03162 µM): 0.938 GR
- GR value (Neratinib/HKI272; 0.1 µM): 0.772 GR
- GR value (Neratinib/HKI272; 0.3162 µM): 0.749 GR
- GR value (Neratinib/HKI272; 1 µM): 0.548 GR
- GR value (Neratinib/HKI272; 3.162 µM): 0.195 GR
- GR value ([3]; 0.0001 µM): 1.05 GR
- GR value ([3]; 0.0003162 µM): 1.08 GR
- GR value ([3]; 0.001 µM): 1.13 GR
- GR value ([3]; 0.003162 µM): 1.08 GR
- GR value ([3]; 0.01 µM): 0.655 GR
- GR value ([3]; 0.03162 µM): -0.491 GR
- GR value ([3]; 0.1 µM): -0.587 GR
- GR value ([3]; 0.3162 µM): -0.579 GR
- GR value ([3]; 1 µM): -0.628 GR
